# Source: the supplement of paper PMC10307832
# Assays:
# Assay in all cases: relative viability (nuclei count vs DMSO), 5 days (fraction); higher = more cells survive
# Dabrafenib + AZD7762 = compound: CC(C)(C)c1nc(-c2cccc(NS(=O)(=O)c3c(F)cccc3F)c2F)c(-c2ccnc(N)n2)s1 [Dabrafenib] + NC(=O)Nc1cc(-c2cccc(F)c2)sc1C(=O)N[C@H]1CCCNC1 [AZD7762] (partner 0.2 µM)
# Summary of the method: (§1)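 Lung cancer cell lines were pin-tool dosed in 1536-well plates on the day after seeding, with either a lone drug or a fixed anchor-drug dose plus five library-drug doses (not always all listed) in √10 steps. Nuclei were counted on 4× images after 5 days. Relative viability is the ratio of treated-well to vehicle-well nuclei counts, with each value a median of duplicate plates.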
# Dabrafenib + Olaparib = compound: CC(C)(C)c1nc(-c2cccc(NS(=O)(=O)c3c(F)cccc3F)c2F)c(-c2ccnc(N)n2)s1 [Dabrafenib] + O=C(c1cc(Cc2n[nH]c(=O)c3ccccc23)ccc1F)N1CCN(C(=O)C2CC2)CC1 [Olaparib] (partner 8 µM)
# Summary of the method: as §1
# VX-702 + Foretinib = compound: NC(=O)c1ccc(N(C(N)=O)c2c(F)cccc2F)nc1-c1ccc(F)cc1F [VX-702] + COc1cc2c(Oc3ccc(NC(=O)C4(C(=O)Nc5ccc(F)cc5)CC4)cc3F)ccnc2cc1OCCCN1CCOCC1 [Foretinib] (partner 0.25 µM)
# Summary of the method: as §1
# VX-702 + Crizotinib = compound: NC(=O)c1ccc(N(C(N)=O)c2c(F)cccc2F)nc1-c1ccc(F)cc1F [VX-702] + C[C@@H](Oc1cc(-c2cnn(C3CCNCC3)c2)cnc1N)c1c(Cl)ccc(F)c1Cl [Crizotinib] (partner 1 µM)
# Summary of the method: as §1
Cell Line,relative viability (Dabrafenib + AZD7762; first compound 0.009487 µM),relative viability (Dabrafenib + AZD7762; first compound 0.03 µM),relative viability (Dabrafenib + AZD7762; first compound 0.09487 µM),relative viability (Dabrafenib + AZD7762; first compound 0.3 µM),relative viability (Dabrafenib + Olaparib; first compound 0.009487 µM),relative viability (Dabrafenib + Olaparib; first compound 0.03 µM),relative viability (Dabrafenib + Olaparib; first compound 0.09487 µM),relative viability (Dabrafenib + Olaparib; first compound 0.3 µM),relative viability (VX-702 + Foretinib; first compound 0.02 µM),relative viability (VX-702 + Foretinib; first compound 0.2 µM),relative viability (VX-702 + Foretinib; first compound 0.6325 µM),relative viability (VX-702 + Foretinib; first compound 2 µM),relative viability (VX-702 + Crizotinib; first compound 0.02 µM),relative viability (VX-702 + Crizotinib; first compound 0.2 µM),relative viability (VX-702 + Crizotinib; first compound 0.6325 µM),relative viability (VX-702 + Crizotinib; first compound 2 µM),relative viability (Dabrafenib + AZD7762; first compound 0.003 µM),relative viability (Dabrafenib + Olaparib; first compound 0.003 µM)
NCI-H2347,0.63,0.562,0.605,0.598,0.629,0.552,0.553,0.599,1.49,0.828,1.16,1.03,0.733,0.763,0.858,0.731,–,–
NCI-H1944,0.537,0.397,0.457,0.555,0.41,0.382,0.393,0.402,0.812,0.821,0.798,0.71,0.963,1.01,0.985,0.829,0.219,0.402
A-427,0.808,0.636,0.646,0.744,0.685,0.707,0.658,0.726,1.06,1.03,0.97,1.08,0.824,0.81,0.808,1.01,0.355,0.704
ABC-1,0.638,0.823,0.789,0.597,0.707,0.953,0.849,1.26,1.24,0.968,0.859,1.33,1.34,–,1.08,1.42,0.345,–
NCI-H1703,–,–,–,0.136,0.548,0.326,0.341,0.395,0.32,0.367,0.325,0.395,0.645,0.585,0.608,0.78,–,0.602
NCI-H647,0.437,–,0.32,0.43,0.558,0.449,0.557,0.607,1.22,1.08,1,1.4,1.14,1,1.12,1.05,–,0.661
LU99A,0.401,0.368,0.352,0.261,0.278,0.257,0.236,0.272,0.871,0.677,0.786,0.721,0.61,0.467,0.475,0.437,0.55,0.296
BEN,0.769,–,0.81,0.852,1.24,–,1.02,1.18,0.73,0.556,0.57,0.876,0.732,0.781,0.937,0.956,–,–
EKVX,0.749,0.588,0.676,0.72,0.763,0.766,0.641,0.966,0.754,0.432,0.49,0.685,0.774,0.969,0.905,1.2,–,–
NCI-H2170,0.841,0.616,0.64,0.745,0.605,0.544,0.5,0.625,1.07,1,1.08,1.03,1.28,1.09,1.24,1.4,0.282,0.653
NCI-H2087,1.24,1.11,0.928,1,0.535,0.541,0.385,0.532,1.18,0.915,1.12,1.23,0.847,0.862,0.867,0.739,–,–
NCI-H358,0.866,0.6,0.637,0.775,0.697,0.546,0.538,0.406,0.692,0.598,0.663,0.936,0.659,0.549,0.542,0.681,–,0.647
NCI-H1975,0.788,0.734,0.505,0.78,0.758,0.706,0.681,0.718,0.969,0.915,0.943,1.09,0.919,0.982,0.889,1.14,0.481,0.723
HCC-15,1.11,1.09,1.16,1.09,0.673,0.743,0.578,0.63,0.952,0.915,0.99,0.793,0.873,0.834,0.759,0.848,1.17,0.716
HOP-62,0.449,0.493,0.424,0.452,0.297,0.388,–,0.386,1.18,1.19,1.25,1.33,0.946,0.651,0.549,0.915,0.088,–
EMC-BAC-2,1.13,0.967,0.728,0.782,0.444,0.433,0.336,0.388,0.597,0.93,0.999,1.06,0.779,0.678,0.791,0.698,–,–
NCI-H1355,0.814,0.669,0.655,0.803,0.763,0.769,0.639,0.718,0.931,1.01,0.923,1.01,1.09,1.05,1.01,1.04,–,–
NCI-H3122,1.03,1.06,0.986,1.07,0.605,0.647,0.508,0.562,0.964,0.946,1.01,0.923,0.268,0.238,0.251,0.258,0.508,0.631
